Assay results from US5574008A, “Biologically active fragments of glucagon-like insulinotropic peptide” (Eli Lilly and Company, priority 1994, dated 1996).

Test system: fasted normal Sprague-Dawley rats
Test: In vivo hyperglycemic clamp assay (glucose up-take assay)
Parameters: species or system rat
Details: 200 mg/dl plasma glucose clamp, 0.3 nmol/kg iv bolus at 60 min
Text: In vivo Hyperglycemic Clamp Assay (Glucose Up-take Assay) Male Sprague-Dawley rats (Charles Rivers) weighing about 350 grams were allowed to acclimate to their surroundings for a week after which they were cannulated under isoflurane inhalation anesthetic. Two catheters were implanted into the jugular vein for infusions of glucose and GLP-1 fragment. Another catheter was implanted into the carotid artery for sampling blood. The catheters were exteriorized through the skin at the vertex of the head, filled with a glycerol/heparin solution (30 ml glycerol/10 ml heparin from a 1000 u/ml stock solution), and closed off with a one centimeter stainless steel plug. The rats were housed individually in wire mesh cages and were fed ad libitum on a standard rat chow diet. Each animal was given at least one week to recover from surgery before testing any GLP-1 fragments for biological activity. The rats were fasted overnight; on the morning of the experiment, sampling tubes were connected to the indwelling catheters, and the tubes were enclosed in a light weight stainless steel spring for protection. The rats were acclimated to their cages for 15 minutes. All experiments were carried out in conscious, free moving rats. A basal blood sample was taken for measurement of insulin and glucose levels at time zero on the timer. The rats were then given a bolus of 20% dextrose to raise plasma glucose to either 150 mg/dl (8.3 mM) or 200 mg/dl (11.2 mM). Plasma glucose levels were maintained at the chosen level by measuring plasma glucose levels approximately every 5 minutes and adjusting the calibrated variable infusion pump as needed to maintain the established blood glucose levels. Blood samples were collected at 45 and 60 minutes for the control period measurements. At 60 minutes into the clamp, 0.3 nmol/kg of the experimental GLP-1 fragment was injected via the jugular vein catheter and flushed with saline. […] The blood samples were centrifuged in a micro centrifuge to separate the plasma component. Plasma glucose was measured on a Beckman Glucose analyzer II using the glucose oxidase method. Plasma insulin was determined by standard radio immunoassay as per the manufacturer's directions (Diagnostic Products Corp.). The activity of the GLP-1 fragment was determined by the percentage change in glucose infusion rate and change in insulin secreted. These two parameters were compared to control rats that received only diluent. Note: This assay is based on reports that GLP-1 insulinotropic action is glucose dependent. The assay protocol eliminates variability due to falling glucose levels in other protocols using the "bolus" method. The hyperglycemic clamp involved administration of variable amounts of glucose (20% dextrose) to maintain glucose at a constant level of 8.3 or 11.2 mM in fasted normal Sprague-Dawley rats. The hyperglycemic clamp is maintained for 1 hour after which the GLP-1 fragment is injected as a bolus through the jugular vein. […] The glucose infusion rate (GIR) in the last 15 minutes of the control period and after the injection of the peptide is calculated. The activity of the peptide is determined by the increase in glucose infusion rate and change in insulin secreted after the injection of the peptide.

## CC[C@H](C)[C@H](NC(=O)[C@H](Cc1ccccc1)NC(=O)[C@H](CCC(=O)O)NC(=O)[C@H](CCCCN)NC(=O)[C@H](C)NC(=O)[C@H](C)NC(=O)[C@H](CCC(N)=O)NC(=O)CNC(=O)[C@H](CCC(=O)O)NC(=O)[C@H](CC(C)C)NC(=O)[C@H](Cc1ccc(O)cc1)NC(=O)[C@H](CO)NC(=O)[C@H](CO)NC(=O)[C@@H](NC(=O)[C@H](CC(=O)O)NC(=O)[C@H](CO)NC(=O)[C@@H](NC(=O)[C@H](Cc1ccccc1)NC(=O)[C@@H](NC(=O)CNC(=O)[C@@H](N)CCC(=O)O)[C@@H](C)O)[C@@H](C)O)C(C)C)C(=O)N[C@@H](C)C(=O)N[C@@H](Cc1c[nH]c2ccccc12)C(=O)N[C@@H](CC(C)C)C(=O)N[C@H](C(=O)N[C@@H](CCCCN)C(=O)NCC(=O)N[C@@H](CCCNC(=N)N)C(N)=O)C(C)C [GLP-1(9-36)NH2]
Time 60 min
  % Change in GIR: 21.936%
  Plasma Insulin Change: 2.429 ng/mL
Time 62 min
  % Change in GIR: -1.287%
  Plasma Insulin Change: -0.521 ng/mL
Time 64 min
  % Change in GIR: 0.635%
  Plasma Insulin Change: -0.765 ng/mL
Time 66 min
  % Change in GIR: 10.697%
  Plasma Insulin Change: -0.637 ng/mL
Time 68 min
  % Change in GIR: 24.584%
  Plasma Insulin Change: -0.662 ng/mL
Time 70 min
  % Change in GIR: 46.387%
  Plasma Insulin Change: -0.274 ng/mL
Time 75 min
  % Change in GIR: 61.185%
  Plasma Insulin Change: 0.138 ng/mL
Time 80 min
  % Change in GIR: 48.254%
  Plasma Insulin Change: -0.390 ng/mL
Time 85 min
  % Change in GIR: 34.689%
  Plasma Insulin Change: 0.064 ng/mL
Time 90 min
  % Change in GIR: 17.272%
  Plasma Insulin Change: -0.361 ng/mL
Time 100 min
  % Change in GIR: 7.537%
  Plasma Insulin Change: -0.743 ng/mL
Time 110 min
  % Change in GIR: -0.920%
  Plasma Insulin Change: -0.824 ng/mL
Time 120 min
  % Change in GIR: 4.716%
  Plasma Insulin Change: -0.880 ng/mL
Time 130 min
  % Change in GIR: 3.818%
  Plasma Insulin Change: -0.653 ng/mL
Time 140 min
  % Change in GIR: -6.783%
  Plasma Insulin Change: -0.927 ng/mL
Time 150 min
  % Change in GIR: 1.333%
  Plasma Insulin Change: -0.450 ng/mL
